# Marks after values point to notes of the source that are not given here.
# How the values were obtained:
# ER = assay: ERE luciferase reporter (ER transcriptional activation) in hASCs
# [1] = system: myofibroblasts isolated from lungs of patients with IPF; assay: Double transfection of myofibroblasts with miR-29a mimic and miR-199-3p inhibitor; type: cell-based, human
# [2] = system: myofibroblasts from mouse lungs 21 day post BLM; assay: as above; type: cell-based; settings: mouse isolates (data not shown)
# MSC migration = settings: cited from earlier work
# [3] = system: BLM-induced lung injury in 22-month old male C57BL/6 mice; assay: BLM-induced pulmonary fibrosis in aged mice, ASCs given on day 12; type: in vivo, mouse; settings: n = 4-5/group
# AR mRNA = AR mRNA expression in lungs of BLM-treated male mice
# MERS-CoV [4] = settings: in vitro; cited from earlier work
# MERS-CoV [5] = settings: in vitro; cited from earlier work; remark: listed apart in the source
# MERS-CoV [6] = settings: vs untreated animals; cited from earlier work
# CXCR4 = molecular target: T1, CXCR4 (Mus musculus, UniProt P70658); settings: cited from earlier work
# T1 construct: host or cells: BM-MSCs (endogenous receptor)
# T1 sequence (P70658 whole entry): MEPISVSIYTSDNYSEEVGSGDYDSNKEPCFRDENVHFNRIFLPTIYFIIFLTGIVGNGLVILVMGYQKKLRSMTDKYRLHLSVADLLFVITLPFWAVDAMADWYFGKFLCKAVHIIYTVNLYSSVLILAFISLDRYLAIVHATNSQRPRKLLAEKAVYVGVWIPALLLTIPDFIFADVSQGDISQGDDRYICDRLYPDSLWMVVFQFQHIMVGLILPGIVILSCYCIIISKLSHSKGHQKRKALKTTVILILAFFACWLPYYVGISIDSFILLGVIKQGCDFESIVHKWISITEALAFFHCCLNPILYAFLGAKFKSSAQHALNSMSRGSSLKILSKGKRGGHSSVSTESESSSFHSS
# [7] = double transfection miR-29a mimic + miR-199-3p inhibitor, 48 hours post-transfection
# [8] = lung tissue, day 21, ASCs on day 12 post-BLM
molecule,measurement,setting,value
"C[C@]12CC[C@@H]3c4ccc(O)cc4C[C@@H](CCCCCCCCC[S+]([O-])CCCC(F)(F)C(F)(F)F)[C@H]3[C@@H]1CC[C@@H]2O (stereo partly shown) [ICI 182,780, fulvestrant]",block of E2-induced ER transcriptional activation,"ER; hASCs, with E2 1 or 10 nM",able to block activation by E2
"miR-199-3p inhibitor: plasmid containing miR-199-3p inhibitor AACCAATGTGCAGACTACTG (SEQ ID NO: 2), Exiqon (described as plasmid-borne inhibitor, chemistry not given here)",downregulation of miR-199-3p expression (RT-PCR),[1]; co-transfection with miR-29a mimic,at least 100 fold
same,CAV-1 expression (western),[1]; [7],increased CAV-1 expression
same,CAV-1 expression,[2],increased CAV-1 expression
COc1cccc(-c2cc(=O)c3ccccc3o2)c1N [PD98059],effect on IGF-1-induced increase in MSC migration in response to SDF-1,MSC migration,not
bleomycin sulfate [BLM],Interval weight change at day 7 (mean ± SEM),[3]; day 7 after intratracheal BLM 2.0 U/kg (before ASC administration on day 12),−14.2 ± 1.7%^a
same,Overall weight change at day 21 (mean ± SEM),"[3]; day 21 sacrifice, BLM 2.0 U/kg, ASCs 5×10^5 by tail vein on day 12",−27.3 ± 3.7%^aa
same,Collagen type 1α1 mRNA/18s,[3]; [8],213 ± 63
same,TNF-α mRNA/18S,[3]; [8],0.80 ± 0.180^a
same,αvintegrin mRNA/18S,[3]; [8],1.09 ± 0.14^a
same,increase of AR mRNA in lungs,AR mRNA; BLM-treated male mice,six-fold increase
same,R mRNA expression/18s,"AR mRNA; lungs of BLM-treated male mice (n = 15) vs saline (n = 16), p < 0.05",2.0 ± 0.5
"C[C@]12CC[C@@H]3c4ccc(O)cc4CC[C@H]3[C@@H]1CC[C@@H]2O [E2, 17β-estradiol]",ER transcriptional activation (luciferase/B-gal),ER; hASCs from post-menopausal women,less than a two-fold change
same,ER transcriptional activation (luciferase/B-gal),"ER; hASCs from pre-menopausal women, E2 10 nM",greater than sixfold
same,ER transcriptional activation (luciferase/B-gal),"ER; hASCs from pre-menopausal women, E2 0.1 and 1 nm",greater than five-fold
"miR-29a mimic: plasmid containing miR-29a mimic AACCGATTTCAGATGGTGCT (SEQ ID NO: 1), Exiqon (described as plasmid-borne mimic, chemistry not given here)",Upregulation of miR-29a (RT-PCR),[1]; co-transfection with miR-199-3p inhibitor,> 5000 fold
same,MMP-2 activity (zymography),[1]; [7],decreased MMP-2 activity
same,MMP-2 activity,[2],decreased MMP-2 activity
Cc1cccc(C)c1OCC(=O)N[C@@H](Cc1ccccc1)[C@@H](O)C[C@H](Cc1ccccc1)NC(=O)[C@H](C(C)C)N1CCCNC1=O [lopinavir],50% effective cytotoxic concentration (EC50) against MERS-CoV,MERS-CoV [4],suboptimal
"COc1c(C)c2c(c(O)c1C/C=C(\C)CCC(=O)O)C(=O)OC2 [MPA, Mycophenolic acid]",inhibition activity against MERS-CoV,MERS-CoV [5],strong inhibition activity
same,disease outcome and viral loads,MERS-CoV [6],developed severe and/or fatal disease with higher mean viral loads
TN14003,inhibition of SDF-1 promoted chemotactic migration of BM-MSCs,CXCR4,completely inhibited
